Data as given in patent US5811425A, “Heterocyclic compounds as COX-2 inhibitors” (Abbott Laboratories, priority 1997, dated 1998).
Structures can show the parent of a compound that is named as a salt.

Key:
[1] = biological target: T1, recombinant human PGHS-2 (COX-2) (Homo sapiens, UniProt P35354); assay: Recombinant human PGHS-2 enzyme assay (PGE2 production by EIA); format: biochemical; conditions: 60 min preincubation, 10 uM arachidonic acid; for inhibition at 0.1 µM: 100 nM compound
T1 construct: made in house; host or cells: baculovirus/Sf9 insect cells (microsomes)
T1 sequence (P35354 18-604): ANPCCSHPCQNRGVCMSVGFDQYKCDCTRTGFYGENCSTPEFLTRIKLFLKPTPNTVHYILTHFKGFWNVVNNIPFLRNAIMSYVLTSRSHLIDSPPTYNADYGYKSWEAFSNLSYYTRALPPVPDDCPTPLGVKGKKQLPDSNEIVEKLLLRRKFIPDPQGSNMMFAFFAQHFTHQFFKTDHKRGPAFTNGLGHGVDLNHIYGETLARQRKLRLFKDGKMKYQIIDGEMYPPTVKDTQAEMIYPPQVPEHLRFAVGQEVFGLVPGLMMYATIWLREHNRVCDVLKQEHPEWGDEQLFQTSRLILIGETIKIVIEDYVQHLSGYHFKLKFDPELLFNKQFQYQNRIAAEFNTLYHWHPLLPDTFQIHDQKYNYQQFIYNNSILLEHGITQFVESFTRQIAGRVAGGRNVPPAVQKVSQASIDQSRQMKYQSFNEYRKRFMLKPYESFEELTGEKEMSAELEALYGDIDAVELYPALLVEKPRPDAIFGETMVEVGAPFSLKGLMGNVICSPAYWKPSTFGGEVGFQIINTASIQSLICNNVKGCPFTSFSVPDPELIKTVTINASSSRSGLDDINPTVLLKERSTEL
Procedure: Recombinant Human PGHS-l and -2 Enzyme Assays: A compound of the invention was dissolved in DMSO (3.3%v/v) and preincubated with microsomes from recombinant human PGHS-1 and-2 expressed in the baculovirus/Sf9 cell system (Gierse, J. […] The reaction was allowed to run for 2.5 minutes at room temperature prior to quenching with HCl and neutralization with NaOH. PGE2 production in the presence and absence of the drug was determined by Enzyme ImmunoAssay ("EIA") analysis as described below. EIA Determination of Prostaglandins EIA reagents for prostaglandin determination were purchased from Perspective Diagnostics, Cambridge, Mass. PGE2 levels in lavage fluids were determined after the samples were dried under nitrogen and reconstituted with assay buffer. PGE2 levels in enzyme assays or cell culture media were measured against standards prepared in the same milieu. The immunoassays were conducted as recommended by the manufacturer. The EIA was conducted in 96 well microtiter plates (Nunc Roskilde, Denmark) and optical density measured using a microplate reader (Vmax, Molecular Devices Corp., Menlo Park, Calif.).

[2] = tested on: carragennan induced pleurisy; assay: Carragennan Induced Pleurisy Test (CIP); format: in vivo, Sprague-Dawley rats; conditions: Rattus norvegicus; rats, oral 10 mg/kg, 30 min before carrageenan; prostaglandin in pleural lavage at 4 h
Procedure: (§1) EIA Determination of Prostaglandins
(§2) EIA reagents for prostaglandin determination were purchased from Perspective Diagnostics, Cambridge, Mass. PGE2 levels in lavage fluids were determined after the samples were dried under nitrogen and reconstituted with assay buffer. PGE2 levels in enzyme assays or cell culture media were measured against standards prepared in the same milieu. The immunoassays were conducted as recommended by the manufacturer. The EIA was conducted in 96 well microtiter plates (Nunc Roskilde, Denmark) and optical density measured using a microplate reader (Vmax, Molecular Devices Corp., Menlo Park, Calif.).
Carragennan Induced Pleurisy Test (CIP)
Four hours after carrageenan injection, the animals were euthanized and their pleural cavities lavaged with ice cold saline. […] Prostaglandin levels in the methanol lavage fluid were then determined by EIA.

[3] = biological target: T2, recombinant human PGHS-1 (COX-1) (Homo sapiens, UniProt P23219); assay: Recombinant human PGHS-1 enzyme assay (PGE2 production by EIA); format: biochemical; conditions: 100 uM compound; 60 min preincubation; 10 uM arachidonic acid; read-out: COX-1 (% inhib. @ 100 uM)
T2 construct: made in house; host or cells: baculovirus/Sf9 insect cells (microsomes)
Procedure: Recombinant Human PGHS-l and -2 Enzyme Assays:
The reaction was allowed to run for 2.5 minutes at room temperature prior to quenching with HCl and neutralization with NaOH. PGE2 production in the presence and absence of the drug was determined by Enzyme ImmunoAssay ("EIA") analysis as described below.
as §1, §2

T2 sequence (P23219 24-599): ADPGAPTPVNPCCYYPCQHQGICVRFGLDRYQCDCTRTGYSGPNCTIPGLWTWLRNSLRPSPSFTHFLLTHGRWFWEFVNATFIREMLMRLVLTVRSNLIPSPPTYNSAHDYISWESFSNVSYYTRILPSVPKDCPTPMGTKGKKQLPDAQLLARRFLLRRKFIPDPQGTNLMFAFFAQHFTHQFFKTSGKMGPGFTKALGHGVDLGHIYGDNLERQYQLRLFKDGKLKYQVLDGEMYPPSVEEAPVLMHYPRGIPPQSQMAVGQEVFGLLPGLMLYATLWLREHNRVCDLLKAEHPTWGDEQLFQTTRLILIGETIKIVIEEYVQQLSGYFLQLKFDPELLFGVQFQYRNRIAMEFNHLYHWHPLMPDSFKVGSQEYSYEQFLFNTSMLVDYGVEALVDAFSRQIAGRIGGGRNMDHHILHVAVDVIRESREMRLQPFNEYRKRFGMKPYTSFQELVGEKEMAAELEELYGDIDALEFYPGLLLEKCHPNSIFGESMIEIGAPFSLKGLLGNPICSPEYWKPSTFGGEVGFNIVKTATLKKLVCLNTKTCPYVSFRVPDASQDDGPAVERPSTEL

Structure (SMILES)	IC50 [1] [µM]	inhibition at 100 µM [3] [%]	inhibition at 0.1 µM [1] [%]	inhibition in vivo at 10 mg/kg [2] [%]
COc1ccc2c(c1)c(Cc1nc(-c3ccc(Br)cc3)cs1)c(C)n2C(=O)c1ccc(Cl)cc1 [Example 1, 3-[4-(4-bromophenyl)thiazol-2-ylmethyl]-1-(4-Chlorobenzoyl)-5-methoxy-2-methylindole]	0.0003	32		43
COc1ccc2c(c1)c(Cc1nc(-c3ccc(F)cc3F)cs1)c(C)n2C(=O)c1ccc(Cl)cc1 [Example 2, 1-(4-Chlorobenzoyl)-3-[4-(2.4-difluorophenyl)thiazol-2-ylmethyl]-5-methoxy-2-methylindole]		20	82	16
COc1ccc2c(c1)c(Cc1nc(-c3csc4ccccc34)cs1)c(C)n2C(=O)c1ccc(Cl)cc1 [Example 7, 3-[4-(3-benzothienyl)thiazol-2-ylmethyl]-1-(4-Chlorobenzoyl)-5-methoxy-2-methylindole]	0.001	23		20
COc1ccc2c(c1)c(Cc1nc(-c3ccc(O)c([N+](=O)[O-])c3)cs1)c(C)n2C(=O)c1ccc(Cl)cc1 [Example 11, 1-(4-Chlorobenzoyl)-3-[4-(4-hydroxy-3-nitrophenyl)thiazol-2-ylmethyl]-5-methoxy-2-methylindole]		23	48	30
COc1ccc2c(c1)c(Cc1csc(-c3cccnc3)n1)c(C)n2C(=O)c1ccc(Cl)cc1 [Example 12, 1-(4-Chlorobenzoyl)-5-methoxy-2-methyl-3-[2-(3-pyridyl)thiazol-4-ylmethyl]indole]	0.02	40		
COc1ccc2c(c1)c(Cc1csc(-c3ccncc3)n1)c(C)n2C(=O)c1ccc(Cl)cc1 [Example 13, 1-(4-Chlorobenzoyl)-5-methoxy-2-methyl-3-[2-(4-pyridyl)thiazol-4-ylmethyl]indole]		49	77	14
COc1ccc2c(c1)c(Cc1nc(-c3ccc(Cl)cc3)cs1)c(C)n2Cc1ccc(Br)cc1 [Example 14, 1-(4-bromobenzyl)-3-[4-(4-Chlorophenyl)thiazol-2-ylmethyl]-5-methoxy-2-methylindole]	0.007	15		36
COc1ccc2c(c1)c(Cc1nc(-c3ccc(Br)cc3)cs1)c(C)n2Cc1ccc(Br)cc1 [Example 15, 1-(4-bromobenzyl)-3-[4-(4-bromophenyl)thiazol-2-ylmethyl]-5-methoxy-2-methylindole]	0.03	15		
COc1ccc2c(c1)c(Cc1nc(-c3ccc([N+](=O)[O-])cc3)cs1)c(C)n2Cc1ccc(Br)cc1 [Example 16, 1-(4-bromobenzyl)-5-methoxy-2-methyl-3-[4-(4-nitrophenyl)thiazol-2-ylmethyl]indole]	0.007	21		31

Now from value to compound, other results behind:

IC50 [1] [µM]	inhibition at 100 µM [3] [%]	inhibition at 0.1 µM [1] [%]	Structure (SMILES)	inhibition in vivo at 10 mg/kg [2] [%]
0.007	21		COc1ccc2c(c1)c(Cc1nc(-c3ccc4ccccc4c3)cs1)c(C)n2C(=O)c1ccc(Cl)cc1 [Example 3, 1-(4-Chlorobenzoyl)-5-methoxy-2-methyl-3-[4-(2-naphthyl)thiazol-2-ylmethyl]indole]	
0.008	35		COc1ccc2c(c1)c(Cc1nc(-c3cccc(Br)c3)cs1)c(C)n2C(=O)c1ccc(Cl)cc1 [Example 4, 3-[4-(3-bromophenyl)thiazol-2-ylmethyl]-1-(4-Chlorobenzoyl)-5-methoxy-2-methylindole]	24
0.014	16		COc1ccc2c(c1)c(Cc1nc(-c3ccc(Cl)cc3)cs1)c(C)n2C(=O)c1ccc(Cl)cc1 [Example 5, 1-(4-Chlorobenzoyl)-3-[4-(4-Chlorophenyl)thiazol-2-ylmethyl]-5-methoxy-2-methylindole]	
0.012	26		COc1ccc2c(c1)c(Cc1nc(-c3ccc([N+](=O)[O-])cc3)cs1)c(C)n2C(=O)c1ccc(Cl)cc1 [Example 6, 1-(4-Chlorobenzoyl)-5-methoxy-2-methyl-3-[4-(4-nitrophenyl)thiazol-2-ylmethyl]indole]	
0.012	36		COc1ccc2c(c1)c(Cc1nc(-c3ccc(F)cc3)cs1)c(C)n2C(=O)c1ccc(Cl)cc1 [Example 8, 1-(4-Chlorobenzoyl)-3-[4-(4-fluorophenyl)thiazol-2-ylmethyl]-5-methoxy-2-methylindole]	
0.06	40		COc1ccc2c(c1)c(Cc1nc(-c3ccc(S(C)(=O)=O)cc3)cs1)c(C)n2C(=O)c1ccc(Cl)cc1 [Example 9, 1-(4-Chlorobenzoyl)-3-[4-(4-methanesulfonylphenyl)thiazol-2-ylmethyl]-5-methoxy-2-methylindole hydrobromide salt]	
	31	85	COc1ccc2c(c1)c(Cc1nc(-c3cccc([N+](=O)[O-])c3)cs1)c(C)n2C(=O)c1ccc(Cl)cc1 [Example 10, 1-(4-Chlorobenzoyl)-5-methoxy-2-methyl-3-[4-(3-nitrophenyl)thiazol-2-ylmethyl]indole]	
